From patent US6248901A, “Heterocyclic vinyl ethers” (Hoffman-La Roche Inc., priority 1997, dated 2001)
pKi: −log10 of the molar value.

target: rat mGluR2 receptor (Rattus norvegicus, UniProt P31421); assay: GTP γ^35 S test for affinity to group II mGluR (antagonism of 1S,3R-ACPD effect, membranes with rat mGluR2); type: biochemical
Protocol: The binding of the compounds of formula I in accordance with the invention to group II metabotropic glutamate receptors was determined in vitro. The preparations were tested in accordance with the test given hereinafter:
The GTP γ^35 S test was used to determine the affinity of a compound to the group II mGluR. Membranes which adhere to the rat mGluR2 receptor were used. These were stimulated with 10 μM 1S,3R-ACPD.
The Ki values of the compounds to be tested are given. The Ki value is defined by the following formula [formula]

Sequence of rat mGluR2 receptor (P31421 19-872): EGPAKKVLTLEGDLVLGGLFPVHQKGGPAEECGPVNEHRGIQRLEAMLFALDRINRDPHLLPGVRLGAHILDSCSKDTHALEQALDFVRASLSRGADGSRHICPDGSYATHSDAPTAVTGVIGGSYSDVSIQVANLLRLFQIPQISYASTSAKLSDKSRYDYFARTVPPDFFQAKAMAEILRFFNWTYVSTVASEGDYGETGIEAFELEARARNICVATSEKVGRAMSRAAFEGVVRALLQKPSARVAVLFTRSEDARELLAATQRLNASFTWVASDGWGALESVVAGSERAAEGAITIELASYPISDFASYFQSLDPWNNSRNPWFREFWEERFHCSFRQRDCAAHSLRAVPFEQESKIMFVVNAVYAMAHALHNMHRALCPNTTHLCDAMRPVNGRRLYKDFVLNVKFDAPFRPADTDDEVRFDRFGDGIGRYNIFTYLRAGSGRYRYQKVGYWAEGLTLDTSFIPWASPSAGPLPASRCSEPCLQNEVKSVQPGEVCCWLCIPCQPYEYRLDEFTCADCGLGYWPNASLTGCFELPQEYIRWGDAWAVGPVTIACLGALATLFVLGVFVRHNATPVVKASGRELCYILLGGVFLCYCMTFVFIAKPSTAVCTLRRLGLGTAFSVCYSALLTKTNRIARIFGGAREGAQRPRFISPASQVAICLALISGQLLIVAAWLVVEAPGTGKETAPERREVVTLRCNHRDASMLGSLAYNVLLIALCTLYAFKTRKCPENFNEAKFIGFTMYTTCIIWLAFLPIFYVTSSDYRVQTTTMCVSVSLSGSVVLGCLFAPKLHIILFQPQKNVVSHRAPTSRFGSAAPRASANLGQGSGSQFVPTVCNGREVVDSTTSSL

Point of comparison: `COC(=Cn1cncn1)c1ccc(Cl)cc1Cl` [E, 1-[2-(2,4-Dichloro-phenyl)-2-methoxy-vinyl]-1H-[1,2,4]triazole], pKi 4.96. Against it:
- CC(C)OC(=Cn1cncn1)c1ccc(Cl)cc1Cl [A, 1-[2-(2,4-Dichloro-phenyl)-2-isopropoxy-vinyl]-1H-[1,2,4]triazole] — 0.97 log units higher, 5.93
- CC(C)COC(=Cn1cncn1)c1ccc(Cl)cc1Cl [B, 1-[2-(2,4-Dichloro-phenyl)-2-isobutoxy-vinyl]-1H-[1,2,4]triazole] — 1.23 log units higher, 6.19
- CCCCOC(=Cn1cncn1)c1ccc(Cl)cc1Cl [C, 1-[-2-(2,4-Dichloro-phenyl)-2-butoxy-2-vinyl]-1H-[1,2,4]triazole] — 0.89 log units higher, 5.85
- CC(C)OC(=Cn1cncn1)c1c(Cl)cc(Cl)cc1Cl [D, 1-[2-(2,4,6-Trichloro-phenyl)-2-isopropoxy-vinyl]-1H-[1,2,4]triazole] — 0.61 log units higher, 5.57
- CCCCOC(=Cn1cncn1)c1ccc(Br)cc1 [F, 1-[2-(4-Bromo-phenyl)-2-butoxy-vinyl]-1H-[1,2,4]triazole] — 1.22 log units higher, 6.18
